Measurements published in patent US20260158009A1 (GENZYME CORPORATION, priority 2023, published 2026).

Key:
[1] = biological target: T1, hRIPK1 (aa 1-375) fusion protein (Homo sapiens, UniProt Q13546); experiment: ADP-Glo kinase assay: catalytic activity of RIPK1 (autophosphorylation, conversion of ATP to ADP); type: biochemical
T1 construct: hRIPK1 (aa 1-375) fusion protein
T1 sequence (Q13546 1-375): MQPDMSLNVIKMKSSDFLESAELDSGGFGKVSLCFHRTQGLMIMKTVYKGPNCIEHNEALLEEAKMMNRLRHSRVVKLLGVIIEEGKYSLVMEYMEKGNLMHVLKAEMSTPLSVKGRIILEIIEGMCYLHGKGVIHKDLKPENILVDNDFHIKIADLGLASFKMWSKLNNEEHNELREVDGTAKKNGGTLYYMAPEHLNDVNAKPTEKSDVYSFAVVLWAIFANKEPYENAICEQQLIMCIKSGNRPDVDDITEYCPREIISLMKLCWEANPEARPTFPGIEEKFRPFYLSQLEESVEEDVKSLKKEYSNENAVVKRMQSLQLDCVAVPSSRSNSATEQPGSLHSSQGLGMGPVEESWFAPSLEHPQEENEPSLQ
Summary of the method: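 The readout was ADP-Glo luminescence after a 240 min rt autophosphorylation reaction with 50 μM ATP, following 30 min preincubation of 3.6 μg/ml hRIPK1 (aa 1-375) fusion with compound at 33300-1.69 nM final in 1% DMSO. Values came from Levenberg-Marquardt nonlinear fits.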

U937 cells = experiment: Cellular assay in U937 cells: activity of RIPK1 inhibitors on TNFα/zVAD.fmk-induced cell death (necroptosis), CellTiter 96 AQueous (MTS) readout; type: cell-based; details: Homo sapiens, U-937
Summary of the method: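 Necroptosis was measured by viable-cell MTS reduction (4 h, absorbance 490 nm) after overnight (18–24 h) 37° C culture. Cell suspensions of U937 cells carried TNFα (100 ng/ml) plus zVAD.fmk (50 μM) before compound was added. A 10-point curve (10 μM–0.26 nM or 1 μM–0.07 nM) was run in duplicate, normalised to the control lacking TNFα/zVAD.fmk.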

Row | SMILES | IC50 [1] [nM] | IC50 (U937 cells) [nM]
1 | CNC(=O)c1ccc(F)c(C[C@H]2CC[C@H](C(=O)N3OCC[C@H]3c3cc(F)cc(F)c3)CC2)c1 [compound 174, trans-3-[[4-[(3S)-3-(3,5-difluorophenyl)isoxazolidine-2-carbonyl]cyclohexyl]methyl]-4-fluoro-N-methyl-benzamide] | 19 | 4
2 | Cc1ccc([C@@H]2CCON2C(=O)[C@H]2C[C@H](Cn3cnc4cc(F)ccc43)C2)cc1 [compound 114, trans-(3-((5-fluoro-1H-benzo[d]imidazol-1-yl)methyl)cyclobutyl)((S)-3-(p-tolyl)isoxazolidin-2-yl)methanone] | 34 | 174
3 | Cn1nccc1-c1cc(F)cc(C[C@H]2CC[C@H](C(=O)N3OCC[C@H]3c3cnccn3)CC2)c1 [compound 211, trans-[4-[[3-fluoro-5-(2-methylpyrazol-3-yl)phenyl]methyl]cyclohexyl]-[(3S)-3-pyrazin-2-ylisoxazolidin-2-yl]methanone] | 18 | 20
4 | Cc1ncc(C[C@H]2CC[C@H](C(=O)N3OCC[C@H]3c3cc(F)cc(F)c3)CC2)cc1C#N [compound 267, trans-5-[[4-[(3S)-3-(3,5-difluorophenyl)isoxazolidine-2-carbonyl]cyclohexyl]methyl]-2-methyl-pyridine-3-carbonitrile] | 12 | 2
5 | Cc1ccc([C@@H]2CCON2C(=O)[C@H]2CC[C@H](Cc3ccc4nnc(C)n4c3C)CC2)cn1 [compound 376, [4-(3,5-Dimethyl-[1,2,4]triazolo[4,3-a]pyridin-6-ylmethyl)-cyclohexyl]-[(S)-3-(6-methyl-pyridin-3-yl)-isoxazolidin-2-yl]-methanone] | 75 | 90
6 | O=C([C@H]1CC[C@H](Cc2ccc(C3(O)COC3)cc2)CC1)N1OCC[C@H]1c1cc(F)cc(F)c1 [compound 171, trans-[(3S)-3-(3,5-difluorophenyl)isoxazolidin-2-yl]-[4-[[4-(3-hydroxyoxetan-3-yl)phenyl]methyl]cyclohexyl]methanone] | 19 | 6
7 | N#Cc1cc(F)cc([C@@H]2CCON2C(=O)[C@H]2CC[C@H](Cn3cnc4c(F)cc(C#N)cc43)CC2)c1 [compound 36, trans-1-((4-((S)-3-(3-cyano-5-fluorophenyl)isoxazolidine-2-carbonyl)cyclohexyl)methyl)-4-fluoro-1H-benzo[d]imidazole-6-carbonitrile] | 23 | 20
8 | Cc1cn2nc(C[C@H]3CC[C@H](C(=O)N4OCC[C@H]4c4cc(F)cc(F)c4)CC3)cc(C)c2n1 [compound 291, trans-[(3S)-3-(3,5-difluorophenyl)isoxazolidin-2-yl]-[4-[(2,8-dimethylimidazo[1,2-b]pyridazin-6-yl)methyl]cyclohexyl]methanone] | 12 | 1
9 | Cc1ccc(CC23CCC(C(=O)N4OCC[C@H]4c4cc(F)cc(C#N)c4)(CC2)CC3)cc1C(N)=O [compound 274, 5-[[4-[(3S)-3-(3-cyano-5-fluoro-phenyl)isoxazolidine-2-carbonyl]-1-bicyclo[2.2.2]octanyl]methyl]-2-methyl-benzamide] | 9 | 40
10 | Cc1nc2c(F)cc(C[C@H]3CC[C@H](C(=O)N4OCC[C@H]4c4cnc(C)c(F)c4)CC3)cn2n1 [compound 327, trans-[(3S)-3-(5-fluoro-6-methyl-3-pyridyl)isoxazolidin-2-yl]-[4-[(8-fluoro-2-methyl-[1,2,4]triazolo[1,5-a]pyridin-6-yl)methyl]cyclohexyl]methanone] | 48 | 48
11 | NC(=O)c1cc2ncn(C[C@H]3CC[C@H](C(=O)N4OCC[C@H]4c4cc(F)cc(F)c4)CC3)c2cc1F [compound 75, trans-1-((4-((S)-3-(3,5-difluorophenyl)isoxazolidine-2-carbonyl)cyclohexyl)methyl)-6-fluoro-1H-benzo[d]imidazole-5-carboxamide] | 27 | 36
12 | Cc1cc(C[C@H]2CC[C@H](C(=O)N3OCC[C@H]3c3cnc(C)c(F)c3)CC2)cnn1 [compound 398, trans-[(3S)-3-(5-fluoro-6-methylpyridin-3-yl)-1,2-oxazolidin-2-yl]-[4-[(6-methylpyridazin-4-yl)methyl]cyclohexyl]methanone] | 64 | 182
13 | N#Cc1cc(F)cc([C@@H]2CCON2C(=O)[C@H]2CC[C@H](Cc3cc(F)cc(CO)c3)CC2)c1 [Compound 256, trans-3-fluoro-5-[(3S)-2-[4-[[3-fluoro-5-(hydroxymethyl)phenyl]methyl]cyclohexanecarbonyl]isoxazolidin-3-yl]benzonitrile] | 15 | 1
14 | Cc1nccn1-c1cc(F)cc(C[C@H]2CC[C@H](C(=O)N3OCC[C@H]3c3cc(F)cc(F)c3)CC2)c1 [compound 208, trans-[(3S)-3-(3,5-difluorophenyl)isoxazolidin-2-yl]-[4-[[3-fluoro-5-(2-methylimidazol-1-yl)phenyl]methyl]cyclohexyl]methanone] | 24 | 12
15 | N#Cc1cncc([C@@H]2CCON2C(=O)[C@H]2CC[C@H](Cc3ccc(C4(O)COC4)cc3)CC2)c1 [compound 183, trans-5-[(3S)-2-[4-[[4-(3-hydroxyoxetan-3-yl)phenyl]methyl]cyclohexanecarbonyl]isoxazolidin-3-yl]pyridine-3-carbonitrile] | 45 | 23
16 | Cc1nc2c(Cl)cc(C[C@H]3CC[C@H](C(=O)N4OCC[C@H]4c4cncc(F)c4)CC3)cn2n1 [compound 382, [4-[(8-chloro-2-methyl-[1,2,4]triazolo[1,5-a]pyridin-6-yl)methyl]cyclohexyl]-[(3S)-3-(5-fluoropyridin-3-yl)-1,2-oxazolidin-2-yl]methanone] | 26 | 8
17 | Cn1nccc1C[C@H]1CC[C@H](C(=O)N2OCC[C@H]2c2cc(F)cc(C#N)c2)CC1 [compound 237, trans-3-fluoro-5-[(3S)-2-[4-[(2-methylpyrazol-3-yl)methyl]cyclohexanecarbonyl]isoxazolidin-3-yl]benzonitrile] | 23 | 66
18 | N#Cc1cncc([C@@H]2CCON2C(=O)[C@H]2CC[C@H](Cn3cnc4cc(F)c(C#N)cc43)CC2)c1 [compound 64, trans-1-((4-((S)-3-(5-cyanopyridin-3-yl)isoxazolidine-2-carbonyl)cyclohexyl)methyl)-5-fluoro-1H-benzo[d]imidazole-6-carbonitrile] | 20 | 47
19 | Cc1ccc([C@@H]2CCON2C(=O)C23CCC(Cc4ccc(C)c(C(N)=O)c4)(CC2)C3)cn1 [compound 271, 2-methyl-5-[[4-[(3S)-3-(6-methyl-3-pyridyl)isoxazolidine-2-carbonyl]norbornan-1-yl]methyl]benzamide] | 97 | 605
20 | N#Cc1cc(F)cc([C@@H]2CCON2C(=O)[C@H]2CC[C@H](Cn3ccc4ncc(F)cc43)CC2)c1 [compound 93, trans-3-fluoro-5-((S)-2-(4-((6-fluoro-1H-pyrrolo[3,2-b]pyridin-1-yl)methyl)cyclohexane-1-carbonyl)isoxazolidin-3-yl)benzonitrile] | 20 | 2
21 | Cc1ccc([C@@H]2CCON2C(=O)[C@H]2CC[C@H](Cc3cc(F)c4nnc(C)n4c3)CC2)cn1 [compound 364, trans-[4-(8-Fluoro-3-methyl-[1,2,4]triazolo[4,3-a]pyridin-6-ylmethyl)-cyclohexyl]-[(S)-3-(6-methyl-pyridin-3-yl)-isoxazolidin-2-yl]-methanone] | 234 | 491
22 | O=C([C@H]1CC[C@H](Cc2cncnc2)CC1)N1OCC[C@H]1c1cnccn1 [compound 248, trans-[(3S)-3-pyrazin-2-ylisoxazolidin-2-yl]-[4-(pyrimidin-5-ylmethyl)cyclohexyl]methanone] | 73 | 666
23 | Cc1ncc(C#N)cc1C[C@H]1CC[C@H](C(=O)N2OCC[C@H]2c2cc(F)cc(F)c2)CC1 [compound 278, trans-5-[[4-[(3S)-3-(3,5-difluorophenyl)isoxazolidine-2-carbonyl]cyclohexyl]methyl]-6-methyl-pyridine-3-carbonitrile] | 16 | 3
24 | N#Cc1cc(F)cc([C@@H]2CCON2C(=O)[C@H]2CC[C@H](Cn3ccc4ncc(OCCO)cc43)CC2)c1 [compound 153, trans-3-fluoro-5-[(3S)-2-[4-[[6-(2-hydroxyethoxy)pyrrolo[3,2-b]pyridin-1-yl]methyl]cyclohexanecarbonyl]isoxazolidin-3-yl]benzonitrile] | 6 | 3
25 | O=C([C@H]1CC[C@H](Cc2ccc(CO)c(F)c2)CC1)N1OCC[C@H]1c1cc(F)cc(F)c1 [compound 265, trans-[(3S)-3-(3,5-difluorophenyl)isoxazolidin-2-yl]-[4-[[3-fluoro-4-(hydroxymethyl)phenyl]methyl]cyclohexyl]methanone] | 8 | 1
